Test results from a melting point compilation (Tetko et al.; mined from patent text by program, amines drawn as free bases though some values may be those of a salt).

For `CCCCCC(=O)CCC1C(=O)NC(=O)N1CCCCCCC(=O)O` (centres undefined), the melting point was 84.5 to 86 °C.
`Fc1ccc2[nH]cc(C3=CCN(CC4COc5ccc6[nH]ccc6c5O4)CC3)c2c1` (centres undefined) gave a melting point of 112 °C.
In the case of `CCOc1cc(OCc2ccccc2OCc2nc(-c3ccccc3)oc2C)ccc1CCC(=O)O`, the melting point is reported as 112 to 113 °C.
`COC1=C(OC)C(=O)C(CCCCCCCCCCOC(C)=O)=C(C)C1=O` showed a melting point of 38 °C.
In the case of `O=c1c2ccccc2oc2cc(O)ccc12`, the melting point is reported as 242 °C.
In the case of `CCNC(=O)OC1=C(c2ccccc2)Oc2ccccc2-n2cccc21`, the melting point is reported as 74 to 75 °C.
`Clc1cc2nc(NC3=NCCN3)[nH]c2c(Cl)c1Cl` showed a melting point of 324 to 326 °C.
For `C1=Cn2cnnc2C(c2ccccc2)c2ccccc21` (centres undefined), the melting point was 217 to 218 °C.
Compound `Cn1nnnc1-c1cccc(Oc2cccc(C(F)(F)F)c2)n1` has a melting point of 92 to 94 °C.
In the case of `CCN(CC)CCOC(=O)c1ccc(NC(=O)c2ccc(-c3ccccc3)cc2)cc1`, the melting point is reported as 146 to 149 °C.
Compound `Cc1cc(CSCCN)sc1CN1CCCCC1` has a melting point of 81 °C.
For `COc1ccc(N2CCN(c3ccc(NC(N)=S)cc3)CC2)cc1`, the melting point was 265 °C.
Compound `NC(=O)c1nccn1C1Cc2cc(Cl)ccc2C1=O` (centres undefined) has a melting point of 240 °C.
With `O=c1[nH]ccc2c1ccn2-c1ccc(C(F)(F)F)cc1Cl` the melting point was 233 to 235 °C.
Work on `O=C1c2cc(F)ccc2CCc2cccnc21` yielded a melting point of 78 to 81 °C.
With `CCOC(=O)Cn1cc(C(=O)O)c2nc3c(C)cccc3cc2c1=O` the melting point was 277 to 280 °C.
Compound `CC1OC(C)(C)c2cc(-c3ccc(C#N)n3C(=O)OC(C)(C)C)ccc2N1C(=O)OCC1c2ccccc2-c2ccccc21` (centres undefined) has a melting point of 135 to 136 °C.
Work on `O=C(O)Cc1ccc(C#CC#Cc2ccc(CC(=O)O)cc2)cc1` yielded a melting point of 91 °C.
`Clc1cccc(C(c2ccnc3ccccc23)n2ccnc2)c1` (centres undefined) showed a melting point of 184 °C.
With `C#CCN1C(=O)COc2cc(F)c(NC(=O)C3CCCN3C(=O)OCc3ccccc3)cc21` (centres undefined) the melting point was 72 to 74 °C.
Work on `COc1cccc2cc(C)c(-c3ccccc3)nc12` yielded a melting point of 105 °C.
`O=c1cc(Nc2cccc(-c3ccncc3)c2)c1=O` gave a melting point of 252 to 256 °C.
`COC(=O)c1ncc(C(=O)NS(=O)(=O)c2ccccc2)cc1OC` showed a melting point of 160 to 163 °C.
`O=C(Nc1ccccc1)Nc1cc(Cl)ccc1C(=O)O` gave a melting point of 186 to 188 °C.
`CC(C)CC(C)c1cc(C(C(F)(F)F)C(F)(F)F)ccc1NC(=O)c1c(C(F)(F)F)nn(C)c1Cl` (centres undefined) gave a melting point of 102 to 104 °C.
`CS(=O)(=O)c1ccc(-c2cc(C#N)sc2-c2ccc(F)cc2)cc1` gave a melting point of 139 to 140 °C.
Work on `CC1(C)C=C(CS(=O)(=O)c2ccccc2)C(C)(C)CC1` yielded a melting point of 48 to 50 °C.
`Nc1nc2c(sc(=S)n2C2OC(COC(=O)c3ccccc3)C(OC(=O)c3ccccc3)C2OC(=O)c2ccccc2)c(=O)[nH]1` (centres undefined) gave a melting point of 230 to 233 °C.
`O=C(CN1CCCC1)NCc1ccc2c(c1)-c1[nH]nc(-c3ccsc3)c1C2` showed a melting point of 201 to 204 °C.
`Cc1cn(-c2ccc3nnc4c(C)nc(C5CCCCC5)n4c3c2)c(C2CCCCC2)n1` gave a melting point of 224 to 227 °C.
`Nc1cccc(-c2ccc(-c3ccccc3)cc2)c1N` gave a melting point of 203 to 206 °C.
Work on `S=c1[nH]c2ccc(Cl)cc2c2nc(-c3ccco3)nn12` yielded a melting point of 202 to 207 °C.
Compound `COc1cccc(NC(=O)NCC(=O)N(CC(=O)N2CCCC(C)(C)C2)c2ccccc2)c1` has a melting point of 200 °C.
With `O=C1c2ccccc2N(N2CCCCCC2)C2=NCCN12` the melting point was 206 to 208 °C.
Compound `COC(=O)CC(C)(C)C(=O)c1ccc2c(c1)CC(N1C(=O)c3ccccc3C1=O)C2` (centres undefined) has a melting point of 115 to 117 °C.
For `COC(=O)C1(N)C(=O)Nc2ccccc2CC1c1ccccc1` (centres undefined), the melting point was 201 °C.
With `C=CCc1c(N2C(=O)C3=C(CCCC3)C2=O)ccc(C)c1O` the melting point was 141 to 143 °C.
Compound `CCCCCCC(C)(C)c1cc(OCc2ccccc2)c(C2=C(CC(=O)O)CCC(C)C2)c(OCc2ccccc2)c1` (centres undefined) has a melting point of 69 to 70 °C.
In the case of `Cc1cc(OCc2ccccc2)nc(S(C)(=O)=O)n1`, the melting point is reported as 57 to 60 °C.
For `N#CCc1ccc(CNC(=O)C2Cc3ccccc3N2S(=O)(=O)c2ccc(-c3cccc(C(F)(F)F)c3)cc2)cc1` (centres undefined), the melting point was 75 to 80 °C.
In the case of `NS(=O)(=O)c1ccc(C(=O)c2ccc(O)cc2)s1`, the melting point is reported as 183 to 190 °C.
Work on `CC(CCl)CCCC(C)C1CCC2C3=CC=C4C(C)(C)C(O[Si](C)(C)C(C)(C)C)CCC4(C)C3CCC21C` (centres undefined) yielded a melting point of 114 to 116 °C.
With `CN(C)C(=O)c1cc2c(NCCc3ccccc3)ncnc2s1` the melting point was 157 °C.
`CSc1nnc(C(N)(c2ccc(Cl)cc2)c2ccc3nc(C)cc(-c4cccc(Cl)c4)c3c2)n1C` (centres undefined) gave a melting point of 128 °C.
`O=C1O[C@@H](CNC(=O)C(F)(F)F)CN1c1ccc2c(c1)CCCc1cnoc1-2` showed a melting point of 203 to 205 °C.
With `CON(CCCc1ccc(Cl)c(Cl)c1)C(=O)C1=C(O)C(=O)N(C)C1` the melting point was 106 to 108 °C.
In the case of `O=C(Cc1cc2ccccc2[nH]1)Nc1ccc(-n2nc(C(F)(F)F)cc2C(F)(F)F)cc1`, the melting point is reported as 176 to 178 °C.
Work on `CC(Cn1cncn1)(O[Si](C)(C)C)c1ccc(F)cc1F` (centres undefined) yielded a melting point of 51 to 53 °C.
In the case of `CS(=O)(=O)c1ccc2c(c1)C=C(C(=O)O)C(C(F)(F)F)O2` (centres undefined), the melting point is reported as 208 to 212 °C.
`NC(CC(=O)O)c1ccc(OC(F)(F)F)cc1` (centres undefined) showed a melting point of 258 to 260 °C.
In the case of `CC(C)Cc1nn(C)c(=O)c2cn(Cc3ccncc3)cc12`, the melting point is reported as 91 to 93 °C.
Work on `CCCN1CC(Nc2ccc3c(c2)CCO3)CC2c3cccc4c3c(cn4C)CC21` (centres undefined) yielded a melting point of 137 to 138 °C.
`Nc1ccc(CN2C(=O)[C@H]3CCC[C@H]3N(C(=O)CN3C(=O)c4ccccc4C3=O)c3ccccc32)cc1` (relative stereo) gave a melting point of 286 to 289 °C.
In the case of `Clc1c2ccccc2nc2c1c(CBr)nn2-c1ccccn1`, the melting point is reported as 203 to 205 °C.
`CN(C)S(=O)(=O)Cc1ccccc1N` showed a melting point of 70 to 78 °C.
`Oc1ccccc1-c1nc(-c2ccccc2O)n(Cc2cccnc2)n1` gave a melting point of 174 to 176 °C.
`O=c1c(-c2cccc(C(F)(F)F)c2)ccc2ccccn12` showed a melting point of 110 to 111 °C.
With `Cc1nc2cccc(F)c2c(=O)n1C1CCC(=O)NC1=O` (centres undefined) the melting point was 275 to 277 °C.
`CCCCOCCOc1ccc(-c2ccc(N(C)Cc3cnn(C)c3)c(C=C(C)C(=O)O)c2)cc1` showed a melting point of 140 °C.
In the case of `CC(=O)Nc1cc2c(cc1[N+](=O)[O-])N(C(C)=O)CCO2`, the melting point is reported as 199 to 202 °C.
Compound `COC(=O)CCc1cn(Cc2ccc(O)cc2)nc1-c1ccccc1` has a melting point of 87 to 88 °C.
`O=c1c2ccccc2sc2ccc(S(=O)(=O)C(F)(F)F)cc12` showed a melting point of 163 to 164 °C.
Compound `O=C(CNC(=O)C(Cc1ccccc1)C(=O)NOCc1ccccc1)OCc1ccccc1` (centres undefined) has a melting point of 70 °C.
Work on `CN(c1cccc2cc(C3=NCC(CC(=O)O)S3)[nH]c12)S(=O)(=O)c1ccccc1C(F)(F)F` (centres undefined) yielded a melting point of 170 to 172 °C.
`COc1ccc(Nc2ccccc2)c2ccccc12` showed a melting point of 108 to 110 °C.
In the case of `Cc1c(C)c(N2Cc3ccccc3C2)c(C)c2c1OC(C)(C)C2c1ccc(C(C)C)cc1` (centres undefined), the melting point is reported as 113 to 114 °C.
`COc1cc2nc(OC)n3cnnc3c2cc1OC` showed a melting point of 245 to 250 °C.
`CSC1NC(=O)N(C)C(=O)N1N=C(C)C` (centres undefined) showed a melting point of 130 to 132 °C.
For `CC(=O)Nc1ccc(C(=O)C2CCN(CC(=O)c3ccc(F)cc3)CC2)cc1`, the melting point was 168 to 170 °C.
Compound `CC(NO)c1ccc2c(c1)Sc1cc(Cl)ccc1O2` (centres undefined) has a melting point of 103 to 105 °C.
Compound `Nc1nc(F)cc(F)n1` has a melting point of 193 to 196 °C.
With `CN1C(=S)N(c2ccc(C#N)c(C(F)(F)F)c2)C(=O)C1(C)C` the melting point was 171 °C.
`CCC=Cc1c(C(C)C)nc(C(C)C)c(CO)c1-c1ccc(F)cc1` gave a melting point of 115 to 117 °C.
For `O=C1C[C@@H](O)C[C@H](CCc2c(Cl)cc(Cl)c3ccc(Cl)cc23)O1` (relative stereo), the melting point was 111 to 115 °C.
Work on `CCOC(=O)C(C)(C)N1OCC(CSC)=C(c2ccccc2)C1=O` yielded a melting point of 105 to 106 °C.
`NC(=O)c1cccc(N2CCN(C(=O)c3c(-c4ccccc4)ccn3CC(=O)O)CC2)c1` showed a melting point of 132 °C.
In the case of `O=C(C(=O)c1cccc(Br)c1)c1cc[nH]c1`, the melting point is reported as 111 to 113 °C.
`COc1cc2c(=O)c(Cc3cccnc3)cn3c4cc(Br)ccc4c(c1)c23` gave a melting point of 169 to 172 °C.
With `Cc1ccc(S(=O)(=O)Nc2ccccc2O)cc1` the melting point was 140 °C.
`CC(C)(C)N1CC(O)C1` showed a melting point of 42 to 43 °C.
Compound `CCN1CCN(Cc2cc(C)c3c(c2)-c2[nH]nc(-c4ccsc4)c2C3)CC1` has a melting point of 230 to 231 °C.
`NC(=O)c1ccc(F)c2c1CC(NCCCc1c[nH]c3c(Cl)cccc13)CO2` (centres undefined) gave a melting point of 222 to 224 °C.
`COc1ccc(OC)c2c1[C@H](C=O)c1ccccc1[C@@H]2C=O` gave a melting point of 129 to 132 °C.
Work on `COc1ccc2cc([C@H](C)C(=O)NNC(=O)CCCO[N+](=O)[O-])ccc2c1` yielded a melting point of 117 to 119 °C.
Work on `COc1cc(NC(=O)C(C#N)=CNc2ccc(Br)c(OC)c2)c(Cl)cc1Cl` yielded a melting point greater than 250 °C.
In the case of `Fc1cccc(F)c1C1=NC(c2ccc(I)cc2)CO1` (centres undefined), the melting point is reported as 105 to 106 °C.
`COc1ccc(Cn2c(=O)c(C(=O)NC3CCCCC3)c(O)c3cc(Cl)cnc32)cc1` gave a melting point of 193 °C.
Work on `CC1(C(=O)c2c[nH]c3ncc(-c4cccc(N5CCCC5)c4)nc23)CCCCCC1` yielded a melting point of 192 to 193 °C.
Compound `COc1ccc2ccn(CC(N)=O)c2c1` has a melting point of 210 to 211 °C.
For `COc1ccc2c(c1OC)CC[C@H]2NC(C)=O`, the melting point was 175 °C.
Compound `O=[N+]([O-])c1cccnc1NCc1ccccn1` has a melting point of 114 °C.
`COc1ccc(Oc2c(C)cc([N+](=O)[O-])cc2C)cc1C(=O)c1ccc(F)cc1` showed a melting point of 167 to 168 °C.
`COc1ccc(-c2nn(Cc3ccc(Cl)cc3Cl)c(=O)cc2-c2ccncc2)cc1` gave a melting point of 151 to 153 °C.
In the case of `CN(Cc1ccc(NC(=O)C2=Cc3cc(-c4ccc(Cl)cc4)ccc3OCC2)cc1)C1CCOCC1`, the melting point is reported as 191 to 192 °C.
With `COC(=O)N/C(=C\C[PH](=O)CO)C(=O)O` (centres undefined) the melting point was 254 to 256 °C.
Compound `CC(C)C(=O)C(C)(C)C1(O)C(=O)N(Cc2ccc(Cl)cc2)c2ccccc21` (centres undefined) has a melting point of 105 to 107 °C.
With `Cn1c(CN2C(=O)C3(COc4cc5c(cc43)OCO5)c3ccccc32)nc2ccccc21` (centres undefined) the melting point was greater than 250 °C.
With `CNC(=O)C1=C(OC(C)C)c2cc(OC)ccc2S1=O` (centres undefined) the melting point was 123 to 124 °C.
In the case of `FC(F)(F)C1(c2cc(Cl)cc(Cl)c2)CC(c2ccc(CBr)c(Cl)c2)=NO1` (centres undefined), the melting point is reported as 94 to 97 °C.
